Measurements published in USRE40387E1, “Pharmaceutical compositions, dosage forms and methods for oral administration of epothilones” (Bristol-Myers Squibb Company, priority 2001, dated 2008).
Where “and” joins values, the source holds several entries; their conditions need not be identical. Equal entries are not always repeated. Where two headings read alike, the source gives them in different places.

What was measured:
[1] = Pharmacokinetics and absolute oral bioavailability of formulations in beagle dogs; assay type: in vivo, adult male beagle dogs; details: for CMAX, mean / TMAX, median / Cmax / Tmax: n = 3; for AUC(0-t) / Cmax / Tmax: male, beagle, dog, plasma; for AUC(0-t): T = 24 h; for Tmax: read-out: TMAX, median
Procedure: The absolute oral bioavailability of various formulations of Compound (A) in adult male beagle dogs (n=4) was evaluated. Compound (A) was given as a 10 min intravenous (IV) infusion (0.5 mg/kg), a buffered oral solution (2 mg/kg), and a buffered oral suspension (1 mg/kg).
The design was a single-dose, four-treatment, four-period, non-randomized, crossover design. Compound (A) was given to four adult male beagle dogs as a 10 min IV infusion (0.5 mg/kg), a buffered oral solution (2 mg/kg), or a buffered oral suspension (2 mg/kg). […] Upon reconstitution, the pH of the buffered suspension was about 8.0 and the strength was approximately 0.75 mg/mL. Due to cumulative toxicity the dose for the oral suspension scheduled during the third treatment period was reduced from 2 mg/kg to 1 mg/kg. Furthermore, the fourth treatment was not administered for lack of an evaluable formulation. The wash-out period between treatments was at least 7 days. Serial blood samples were collected over 24 h after dose administration and concentrations of Compound (A) and Compound (B) were determined using a LC/MS/MS assay with a standard curve range of 2-500 ng/mL for both analytes. The LC/MS/MS assay was the same as used in Example 1.
Analytical runs consisted of standard, quality control (QC), and study samples. The plasma volume used for analysis was 0.2 mL and the standard curve range was 2 to 500 ng/mL for both analytes, defining the lower limit of quantitation (LLQ) and upper-limit of quantitation (ULQ), respectively. If the predicted concentration of a study sample was less than that of the lowest standard, the value of the predicted concentration was reported as <LLQ. […]. If the predicted concentration was greater than that of the highest standard, the result of that analysis was reported as >ULQ and an appropriate volume of that sample was diluted with blank plasma and reanalyzed.
Four adult male dogs with venous access for drug administration and blood collection were selected for the study. The dogs were acclimated for at least one week prior to study initiation and were housed in individual steel cages. Animals were identified by a unique number and by a tag attached to the cage. The dogs were offered drinking water ad libitum, and fed once a day with standard canine diet except for an overnight (about 12 h) fast prior to dosing which was continued until 4 h after dosing. Fifteen (15) minutes prior to administration of the buffered oral suspension, the dogs were pretreated with pentagastrin (6 :g/kg; intramuscularly). Pentagastrmn pretreatment was used only for the oral suspension leg. The IV dose was administered as a constant-rate infusion over a period of 10 min using a calibrated infusion pump. The oral solution and suspension doses were administered by gavage and the gavage tubes were rinsed with 20 mL of water.
Serial blood samples (3 mL) were collected at predose, and 10 min (IV only; end-of-infusion), 15 min, 20 min (IV only), 30 min, and 45 min, and 1 h, 1.5 h, 2 h, 4 h, 6 h, 8 h, 12 h, and 24 h after dosing. Blood samples were collected into Vacutainer® tubes containing K3-EDTA as the anticoagulant and the contents of each tube were mixed by gently inverting the tube. The blood samples were then placed immediately on chipped ice. Plasma was obtained within 30 min of collection by centrifuging the tubes at approximately 4° C. and 2000×g for 5 min. Plasma samples were stored at or below −20° C. until analyzed for the concentrations Compound (A) and Compound (B).
The peak plasma concentration (CMAX) and the time to reach peak concentration (TMAX) were recorded directly from experimental observations. The area under the plasma concentration-time curve from time zero to T (AUC(0−T)), where T is the time of the last measurable plasma concentration, was calculated using the trapezoidal rule (See, M. Gibaldi, et al., Pharmacokinetics, 2nd ed., New York, N.Y., Marcel Decker, p. 445-91982). […]

[2] = Kinetics in single dose IV toxicology study in dogs; assay type: in vivo; details: for mean CMAX in plasma: combined across gender; for AUC / Cmax: both sexes, dog, plasma; for Cmax: read-out: mean CMAX of Compound (B) in plasma
Procedure: The kinetics of Compound (A) were also evaluated as part of a single dose IV toxicology study. Compound (A) was given as an IV infusion (ca. 15 min) at doses of 0.5 and 5 mg/kg to 2 dogs/gender/dose. […] Blood samples were obtained over a period of 48 h after dosing, and plasma concentrations of Compound (A) and Compound (B) were determined using the LC/MS/MS assay with a standard curve range of 2-500 ng/mL for both analytes. […] T-HALF, MRT(INF), CLT, and VSS were not determined due to the limited sampling used in the study.

[3] = tested on: Caco-2 cell culture system; experiment: Caco-2 cell permeability
Procedure: The Pc of some model compounds, for which the bioavailability in humans is known, was also determined in the same experiment.

[4] = Toxicokinetics in single dose IV toxicology study in rats; assay type: in vivo
Procedure: The toxicokinetics of Compound (A) were evaluated in a single dose IV toxicology study in rats. […] Compound (A) was given as an IV infusion (ca. 3 min) at doses of 10, 25, and 30 mg/kg to 3 rats/gender/dose. Serial blood samples were obtained over a period of 24 h after dosing, and plasma concentrations of Compound (A) and Compound (B) were determined using an LC/MS/MS assay with a standard curve range of 2-500 ng/mL for both analytes. At a dose of 10, 25, and 30 mg/kg, the mean CMAX values of Compound (A) in male rats were 6422, 19066, and 24414 ng/mL, respectively; in female rats, the mean CMAX values were 8384, 20524, and 25054 ng/mL, respectively. […] For doses in a ratio of 1:2.5:3 proportion, the mean CMAX values of Compound (A) for males and females were in the ratio of 1:3.0:3.8 and 1:2.5:3.0, respectively, and the AUC values were in the ratio of 1:3.1:4.9 and 1:3.5:4.2, respectively. T-HALF, mean residence time over the time interval zero to infinity MRT(INF), total body clearance (CLT), and VSS were not determined due to the limited sampling used in the study.

[5] = dogs, IV Compound (A) 0.5 mg/kg
[6] = dogs, buffered oral solution of Compound (A) 2 mg/kg
[7] = two dogs with both IV and oral solution data
[8] = IV infusion of Compound (A) 0.5 mg/kg
[9] = IV infusion of Compound (A) 5 mg/kg
[10] = female rats, IV infusion 10 mg/kg
[11] = female rats, IV infusion 25 mg/kg
[12] = female rats, IV infusion 30 mg/kg
[13] = male rats, IV infusion 10 mg/kg
[14] = male rats, IV infusion 25 mg/kg
[15] = male rats, IV infusion 30 mg/kg

With `C/C(=C\c1csc(C)n1)[C@@H]1C[C@@H]2O[C@]2(C)CCC[C@H](C)[C@H](O)[C@@H](C)C(=O)C(C)(C)[C@@H](O)CC(=O)N1` (relative stereo) [Compound (A), [1S-[1R*,3R*(E),7R*,10S*,11R*,12R*,16S*]]-7,11-dihydroxy 8,8,10,12,16-pentamethyl-3-[1-methyl-2-(2-methyl-4-thiazolyl)ethenyl-4-aza-17-oxobicyclo[14.1.0]heptadecane-5,9-dione] the “CMAX, mean” value [1, 5] was 1120 (189) ng/mL, the “TMAX, median” value [1, 5] was 10.2 min and the “AUC(0−T), mean (SD)” value [1, 6] was 560 (159) h.ng./mL. The “CMAX, mean” value [1, 6] was 365 (40.9) ng/mL, the “TMAX, median” value [1, 6] was 30 min and the “mean AUC after oral solution higher than dose-normalized mean AUC of oral toxicity study” value ([1]; dogs, oral solution 1.3 mL/kg vs 0.4 mL/kg) was “approximately 2 fold”. For the same compound, the “absolute oral bioavailability, individual dogs” value [1, 7] was 48.3% and 30.6%, the “absolute oral bioavailability, mean value” [1, 7] was 39.5% and the “mean AUC in plasma” value [2, 8] was 316 ng·h/mL. For the same compound, the “mean CMAX in plasma” value [2, 8] was 218 ng/mL, the “mean AUC in plasma” value [2, 9] was 6925 ng·h/mL and the “mean CMAX in plasma” value [2, 9] was 5118 ng/mL. The “permeability coefficient (Pc)” value ([3]; Caco-2, 10 pM (Ca 5 pg/mL)) was 9.4 ×10⁻⁶ cm/s, the “permeability coefficient (Pc)” value ([3]; Caco-2, 30 pM (Ca 15 pg/mL)) was 10.5 ×10⁻⁶ cm/s and the “permeability coefficient (Pc)” value ([3]; Caco-2, 100 pM (Ca 50 pg/mL)) was 12.8 ×10⁻⁶ cm/s. For the same compound, the “mean CMAX” value [4, 10] was 8384 ng/mL, the “mean area under the concentration vs. time curve (AUC)” value [4, 10] was 8156 ng·h/mL and the “mean CMAX” value [4, 11] was 20524 ng/mL. The “mean area under the concentration vs. time curve (AUC)” value [4, 11] was 28476 ng·h/mL, the “mean CMAX” value [4, 12] was 25054 ng/mL and the “mean area under the concentration vs. time curve (AUC)” value [4, 12] was 34563 ng·h/mL. The “mean CMAX” value [4, 13] was 6422 ng/mL, the “mean area under the concentration vs. time curve (AUC)” value [4, 13] was 3864 ng·h/mL and the “mean CMAX” value [4, 14] was 19066 ng/mL. For the same compound, the “mean area under the concentration vs. time curve (AUC)” value [4, 14] was 11980 ng·h/mL, the “mean CMAX” value [4, 15] was 24414 ng/mL and the “mean area under the concentration vs. time curve (AUC)” value [4, 15] was 19269 ng·h/mL.

`CC1=NC(/C=C/[C@@H]2C[C@@H](O)[C@](C)(O)CCC[C@H](C)[C@H](O)[C@@H](C)C(=O)C(C)(C)[C@@H](O)CC(=O)N2)CS1` (some centres unmarked) [Compound (B)] gave a mean plasma concentration ([1]; dogs, IV Compound (A) 0.5 mg/kg, 0.17 h) of 0 ng/mL, a mean plasma concentration ([1]; dogs, IV Compound (A) 0.5 mg/kg, 0.75 h) of 0 ng/mL and a mean plasma concentration ([1]; dogs, IV Compound (A) 0.5 mg/kg, 1 h) of 0 ng/mL. The mean plasma concentration ([1]; dogs, IV Compound (A) 0.5 mg/kg, 1.5 h) was 0 ng/mL, the mean plasma concentration ([1]; dogs, IV Compound (A) 0.5 mg/kg, 2 h) was 0 ng/mL and the mean plasma concentration ([1]; dogs, IV Compound (A) 0.5 mg/kg, 4 h) was 0 ng/mL. It also gave a mean plasma concentration ([1]; dogs, IV Compound (A) 0.5 mg/kg, 6 h) of 0 ng/mL, a mean plasma concentration ([1]; dogs, IV Compound (A) 0.5 mg/kg, 8 h) of 0 ng/mL and a mean plasma concentration ([1]; dogs, IV Compound (A) 0.5 mg/kg, 12 h) of 0 ng/mL. The mean plasma concentration ([1]; dogs, IV Compound (A) 0.5 mg/kg, 24 h) was 0 ng/mL, the mean plasma concentration ([1]; dogs, buffered oral solution of Compound (A) 2 mg/kg, 0.25 h) was 4.1 ng/mL and the mean plasma concentration ([1]; dogs, buffered oral solution of Compound (A) 2 mg/kg, 0.5 h) was 21.3 ng/mL. For the same compound, the mean plasma concentration ([1]; dogs, buffered oral solution of Compound (A) 2 mg/kg, 0.75 h) was 27.2 ng/mL, the mean plasma concentration ([1]; dogs, buffered oral solution of Compound (A) 2 mg/kg, 1 h) was 23.8 ng/mL and the mean plasma concentration ([1]; dogs, buffered oral solution of Compound (A) 2 mg/kg, 2 h) was 8.4 ng/mL. It also gave a mean plasma concentration ([1]; dogs, buffered oral solution of Compound (A) 2 mg/kg, 4 h) of 2.4 ng/mL, a mean plasma concentration ([1]; dogs, buffered oral solution of Compound (A) 2 mg/kg, 6 h) of 0.8 ng/mL and a mean plasma concentration ([1]; dogs, buffered oral solution of Compound (A) 2 mg/kg, 8 h) of 0 ng/mL. For the same compound, the mean plasma concentration ([1]; dogs, buffered oral solution of Compound (A) 2 mg/kg, 12 h) was 0 ng/mL, the mean plasma concentration ([1]; dogs, buffered oral solution of Compound (A) 2 mg/kg, 24 h) was 0 ng/mL and the AUC(0-t) [1, 5] was 0.69 ng·h/mL. It also gave a Cmax [1, 5] of 3.8 ng/mL, a Tmax [1, 5] of 10.2 min and an AUC(0-t) [1, 6] of 45.2 ng·h/mL. For the same compound, the Cmax [1, 6] was 27.2 ng/mL, the Tmax [1, 6] was 45 min and the AUC [2, 8] was 55 ng·h/mL. The Cmax [2, 8] was 95.6 ng/mL, the AUC [2, 9] was 1110 ng·h/mL and the Cmax [2, 9] was 984 ng/mL. For the same compound, the AUC ([4]; both sexes, rat, plasma, rats, IV Compound (A) 10-30 mg/kg, read-out: AUC of Compound (B) across gender and dose groups) was 222 to 2000 ng·h/mL and the Cmax ([4]; both sexes, rat, plasma, rats, IV Compound (A) 10-30 mg/kg, read-out: CMAX of Compound (B) across gender and dose groups) was 499 to 1790 ng/mL.
